Results as given in US6888001B2, “Pyridyl ethers and thioethers as ligands for nicotinic acetylcholine receptor and its therapeutic application” (priority 1998, dated 2005).
Where two headings read alike, the source gives them in different places.

Key:
α4β2 nAChR = target: T1, α4β2 nAChR (Rattus norvegicus, UniProt P09483+P12390); assay: Binding of 3H-cytisine to α4β2 nAChR, crude synaptic membranes; conditions: for inhibition at 10 µM: read-out: α4β2 % Inhibition at 10 μM
T1 construct: crude synaptic membrane preparations from rat cerebral cortex, striatum and hippocampus; from tissue; host or cells: rat cerebral cortex, striatum and hippocampus (crude synaptic membranes, P2 fraction)
T1 sequence (P09483 31-630): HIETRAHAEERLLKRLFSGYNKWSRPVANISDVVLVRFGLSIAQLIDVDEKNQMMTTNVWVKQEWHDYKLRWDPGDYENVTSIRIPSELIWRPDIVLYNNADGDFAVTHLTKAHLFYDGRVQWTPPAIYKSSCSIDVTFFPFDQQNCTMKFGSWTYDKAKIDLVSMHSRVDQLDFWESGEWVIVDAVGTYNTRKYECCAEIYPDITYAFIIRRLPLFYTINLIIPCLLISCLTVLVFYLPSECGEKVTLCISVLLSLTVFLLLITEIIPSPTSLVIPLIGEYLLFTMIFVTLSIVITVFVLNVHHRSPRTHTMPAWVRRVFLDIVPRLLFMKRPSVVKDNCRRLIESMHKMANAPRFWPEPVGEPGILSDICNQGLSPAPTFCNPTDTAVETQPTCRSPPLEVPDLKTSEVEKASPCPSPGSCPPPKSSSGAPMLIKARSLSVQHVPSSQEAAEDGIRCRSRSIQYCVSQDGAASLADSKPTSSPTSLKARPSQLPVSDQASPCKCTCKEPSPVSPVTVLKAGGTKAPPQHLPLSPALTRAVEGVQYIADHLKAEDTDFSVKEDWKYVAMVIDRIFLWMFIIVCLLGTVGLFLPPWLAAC
T1 sequence (P12390 25-500): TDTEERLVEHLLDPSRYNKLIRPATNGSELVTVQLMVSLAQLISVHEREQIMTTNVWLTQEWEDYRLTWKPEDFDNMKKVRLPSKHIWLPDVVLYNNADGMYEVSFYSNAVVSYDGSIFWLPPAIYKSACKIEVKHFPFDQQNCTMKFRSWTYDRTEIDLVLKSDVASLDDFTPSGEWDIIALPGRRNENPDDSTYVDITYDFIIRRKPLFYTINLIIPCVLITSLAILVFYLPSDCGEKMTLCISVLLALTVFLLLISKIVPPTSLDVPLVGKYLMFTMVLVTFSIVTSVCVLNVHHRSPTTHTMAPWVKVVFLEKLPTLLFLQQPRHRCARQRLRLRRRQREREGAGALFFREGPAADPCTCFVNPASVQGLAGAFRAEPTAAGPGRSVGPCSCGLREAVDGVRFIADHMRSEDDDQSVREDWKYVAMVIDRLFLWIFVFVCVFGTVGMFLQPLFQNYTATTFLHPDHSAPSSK
Description: α4β2 Nicotinic Acetylcholine Receptor (α4β2 nAChR)
In Vitro Protocol for Determination of α4β2 nAChR Binding Potencies of Ligands
Binding of ^3H-cytisine to neuronal nicotinic acetylcholine receptors was accomplished using crude synaptic membrane preparations from rat cerebral cortex, striatum and hippocampus. Either fresh or frozen membranes were homogenized in ˜50 volumes of 10 mM HEPES (N-2-Hydroxyethylpiperazine-N′-2-Ethanesulfonic acid, pH 7.4) and centrifuged at 42,000×g. The P2 fraction was resuspended in ˜40 volumes of 10 mM HEPES and centrifuged at 42,000×g. This step was repeated and the P2fraction was resuspended in 25 volumes (e.g. 1 g of original into 25 mL) of a medium comprising Na^+-HEPES buffer (10 mM, pH 7.4), 5 mM MgCl2, 0.01% powdered bovine serum albumin (BSA) and 100 mM NaCl. To initiate the binding reaction, test compound (100 μL), Na-HEPES buffered incubation medium (400 μL), ^3H-cytisine (250 μL) and the suspension of biological membranes (250 μL) were mixed, and then the samples were incubated at 23° C. for 40 minutes. The binding reaction was terminated by filtration using a Brandel Cell Harvester and the amount of bound ^3H-cytisine for each sample was quantitated using a Wallac LKB 1205 Betaplate liquid scintillation counter. All test compounds were screened at 10 μM in quadruplicate. Nonspecific binding was determined using 10 μM (+)-epibatidine to block all binding of ^3H-cytisine to the α4β2 nAChR. The activity of each test compound was calculated as follows. After correcting for nonspecific binding, the percent inhibition of specific binding (total binding minus nonspecific) was calculated. Each active compound was further tested at five concentrations to generate a concentration-inhibition curve. The IC50 values were determined using the Prism (GraphPad Software) nonlinear regression program.

α7 nAChR = target: T2, α7 nAChR (Rattus norvegicus, UniProt Q05941); assay: Binding of 3H-MLA to α7 nAChR, crude synaptic membranes; conditions: read-out: α7 (% Inh @ 10 uM)
T2 construct: crude synaptic membrane preparations from rat cerebral cortex, striatum and hippocampus; from tissue; host or cells: rat cerebral cortex, striatum and hippocampus (crude synaptic membranes, P2 fraction)
T2 sequence (Q05941 23-502): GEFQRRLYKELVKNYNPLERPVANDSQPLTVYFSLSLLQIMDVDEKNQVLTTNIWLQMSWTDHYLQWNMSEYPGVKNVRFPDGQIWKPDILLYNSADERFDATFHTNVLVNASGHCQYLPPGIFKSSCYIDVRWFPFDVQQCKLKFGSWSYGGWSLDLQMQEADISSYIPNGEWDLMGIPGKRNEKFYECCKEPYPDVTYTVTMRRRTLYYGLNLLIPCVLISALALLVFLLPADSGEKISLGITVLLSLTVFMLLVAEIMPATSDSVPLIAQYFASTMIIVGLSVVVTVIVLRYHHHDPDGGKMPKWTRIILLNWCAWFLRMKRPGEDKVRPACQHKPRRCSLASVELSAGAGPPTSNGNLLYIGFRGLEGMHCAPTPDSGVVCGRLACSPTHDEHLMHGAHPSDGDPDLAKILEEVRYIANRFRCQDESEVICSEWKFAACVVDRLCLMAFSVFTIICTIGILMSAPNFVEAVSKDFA
Description: α7 Nicotinic Acetylcholine Receptor (α7nAChR)
In Vitro Protocol for Determination of α7nAChR Binding Potencies of Ligands
Binding of ^3H-MLA (methylcaconitine) to neuronal nicotinic acetylcholine receptors was accomplished using crude synaptic membrane preparations from rat cerebral cortex, striatum and hippocampus. Either fresh or frozen membranes were homogenized in ˜50 volumes of 10 mM HEPES (N-2-Hydroxyethylpiperazine-N′-2-Ethanesulfonic acid, pH 7.4) and centrifuged at 42,000×g. The P2 fraction was resuspended in ˜40 volumes of 10 mM HEPES and centrifuged at 42,000×g. This step was repeated and the P2 fraction was resuspended in 25 volumes (e.g. 1 g of original into 25 mL) of a medium comprised of Na^+-HEPES buffer (10 mM, pH 7.4), 5 mM MgCl2, 0.01% powdered bovine serum albumin (BSA), and 100 mM NaCl. To initiate the binding reaction, test compound (100 μL), Na-HEPES buffered incubation medium (400 μL), ^3H-MLA (250 μL) and the suspension of biological membranes (250 μL) were mixed, and then the samples were incubated at 23° C. for 40 minutes., The binding reaction was terminated by filtration using a Brandel Cell Harvester, and the amount of bound ^3H-MLA for each sample was quantitated using a Wallac LKB 1205 Betaplate liquid scintillation counter. All test compounds were screened at 10 μM in quadruplicate. Nonspecific binding was determined using 10 μM MLA to block all binding of ^3H-MLA to the α7 nAChR. The activity of each test compound was calculated as follows. After correcting for nonspecific binding, the percent inhibition of specific binding (total binding minus nonspecific) was calculated. Each active compound was further tested at five concentrations to generate a concentration-inhibition curve. The IC50 values were determined using the Prism (GraphPad Software) nonlinear regression program.

[1] = 3H-cytisine, rat cerebral cortex, striatum and hippocampus membranes, IC50 from five concentrations, read-out: α4β2

| Compound | IC50 (α4β2 nAChR) | inhibition at 10 µM (α7 nAChR) | IC50 (α4β2 nAChR; [1]) | inhibition at 10 µM (α4β2 nAChR) |
| --- | --- | --- | --- | --- |
| C[Si](C)(C)C#Cc1ccc(-c2cc(O[C@@H]3CCNC3)cnc2Cl)cc1 [Example 15, 2-Chloro-3-(4-trimethylsilylethynyl)phenyl-5-(3-(R)-pyrrolidinyloxy)-pyridine] | 25 nM | 22% |  |  |
| CN1CC[C@@H](Oc2cccnc2)C1 [Example 5, 3-(1-Methyl-3-(R)-pyrrolidinyloxy)-pyridine] |  | 20% | 544 nM |  |
| COc1cccc(-c2cc(O[C@@H]3CCNC3)cnc2Cl)c1 [Example 14, 2-Chloro-3-(3-methoxy)phenyl-5-(3-(R)-pyrrolidinyloxy)-pyridine] |  | 33% | 58 nM |  |
| Clc1ncc(O[C@@H]2CCNC2)cc1Br [Example 12, 2-Chloro-3-bromo-5-(3-(R)-pyrrolidinyloxy)-pyridine] |  | 11% | 94 nM |  |
| c1cncc(OC2CNC2)c1 [Example 1, 3-(3-Azetidinyloxy)-pyridine] |  | 21% |  | 46% |
| CN1CCC(Oc2cccnc2)C1 (stereo not drawn) [Example 7, 3-(1-Methyl-3-pyrrolidinyloxy)-pyridine] |  | 22% | 92 nM |  |
| c1cncc(O[C@@H]2CCNC2)c1 [Example 4, 3-(3-(R)-Pyrrolidinyloxy)-pyridine] |  | 11% | 45 nM |  |
| c1cncc(O[C@H]2CCCNC2)c1 [Example 11, 3-(3-(S)-Piperidinyloxy)-pyridine] | 673 nM | 86% |  |  |
| c1cncc(OC2CCNC2)c1 (stereo not drawn) [Example 2, 3-(3-Pyrrolidinyloxy)-pyridine] |  | -15% | 209 nM |  |
| Clc1ccc(O[C@@H]2CCNC2)cn1 [Example 6, 2-Chloro-5-(3-(R)-pyrrolidinyloxy)-pyridine] | 466 nM | 20% |  |  |
| c1cncc(O[C@H]2CCNC2)c1 [Example 3, 3-(3-(S)-Pyrrolidinyloxy)-pyridine] |  | 5% | 449 nM |  |
| c1cncc(OC2CCCNC2)c1 (stereo not drawn) [Example 10, 3-(3-Piperidinyloxy)-pyridine] |  | 19% | 204 nM |  |
| CC(C)N1CCC(Oc2cccnc2)C1 (stereo not drawn) [Example 9, 3-(1-Isopropyl-3-pyrrolidinyloxy)-pyridine] |  | 19% |  | 30% |
| CCN1CCC(Oc2cccnc2)C1 (stereo not drawn) [Example 8, 3-(1-Ethyl-3-pyrrolidinyloxy)-pyridine] |  | 18% |  | 71% |
| N#Cc1ccc(-c2cc(O[C@@H]3CCNC3)cnc2Cl)cc1 [Example 13, 2-Chloro-3-(4-cyano)phenyl-5-(3-(R)-pyrrolidinyloxy)-pyridine] |  | 26% | 22 nM |  |
